Results published in patent US11098040B2, “Compounds and methods of use” (Ferro Therapeutics, Inc., priority 2018, dated 2021).
Read-outs that look alike come from different tables or passages of the source.

How the values were obtained:
A549 = assay: Cell viability assay, A549 cells; type: cell-based; details: Homo sapiens
Description: Example 5: Inducer Compound Effect on Growth of A549 and KP4 Cells
Cell viability assay was performed to assess the potency of the compounds in cancer cell line KP4 (pancreatic ductal adenocarcinoma). Cells at a density of 1,000-10,000 cells/well were seeded in 96-well plates and incubated at 37° C. overnight. A series of 9 different concentrations of compound stocks (500×) were created by 3-fold serial dilution in DMSO. These compounds were further diluted in culture media and then added to cells so that the final DMSO concentration was equal to 0.25% or less. After 96 hours of incubation, 50 μL of CellTiter Glo reagent (Promega) was added to each well and luminescence was measured after 10 minutes using EnVision (PerkinElmer). All compounds were tested initially from 30 μM as the top concentration in duplicates (range of 4.6 nM-30 μM). […] Luminescence from cells treated with DMSO alone was set as Max and % of inhibition was calculated as follows: Inhibition %=(Max-Sample value)/Max*100. Data was analyzed using XL-fit software (ID Business Solutions Ltd.). IC50, relative IC50, or % of top inhibition was calculated. […]

KP4 = assay: Cell viability assay (CellTiter Glo), pancreatic ductal adenocarcinoma KP4; type: cell-based, human
In short: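 KP4 cells seeded at 1,000–10,000 per well, treated 96 h with 9-point 3-fold dilutions from 30 μM top (4.6 nM–30 μM, duplicates; ≤0.25% DMSO). Viability by CellTiter Glo luminescence; % inhibition relative to DMSO-only wells, giving IC50, relative IC50 or % top inhibition.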

SJSA-1 = assay: Cell proliferation (Alamar Blue) assay, SJSA-1 osteosarcoma, with/without ferrostatin; type: cell-based, human; details: Homo sapiens
Description: (§1) Cell viability assay was performed to assess the potency of the compounds in human cancer cell lines 786-O (renal cell carcinoma) and SJSA-1 (osteosarcoma). Additional cell lines, such as those described above in Example 4 as well as various others, e.g., pancreatic cancer cell lines (Panc 02.13, BxPC-3, Panc 12, Panc 02.03, Panc 6.03, PSN-1, HPAC, and Capan-1) and prostate cancer cell lines (PC-3, DU145, 22Rv1, NCI-H660, BPH1, LNCaP, BM-1604, and MDA PCa 2b), were tested for select compounds as shown in Table 25.
(§2) Cells (SJSA-1, 786-O and A431) were seeded (5000 cells/100 μL/well) in 96-well tissue culture plate and incubated at 37° C./5% CO2 for 16-24 hours. The cells were then treated with compounds (25 μL of 5×). The compound concentrations were 10-0.0005 μM prepared in 3-fold serial dilutions with final DMSO concentration of 1%. The plates were then incubated for 24 h at 37° C./5% CO2 in a moist environment. Then Alamar Blue™ reagent (final concentration 1×-12.5 μL) was added to each well and incubated for 1.5 hours at 37° C./5% CO2. The plates were read on fluorescence reader at 540 nm excitation and 590 nm emission wavelengths. The IC50 values were subsequently determined using a sigmoidal dose-response curve (variable slope) in GraphPad Prism® 5 software.
(§3) Studies have shown that lipophilic antioxidants, such as ferrostatin, can rescue cells from GPX4 inhibition-induced ferroptosis. For instance, mesenchymal state GPX4-knockout cells can survive in the presence of ferrostatin, however, when the supply of ferrostatin is terminated, these cells undergo ferroptosis (see, e.g., Viswanathan et al., Nature 547:453-7, 2017). […] Accordingly, the ability of a molecule to induce ferroptotic cancer cell death, and that such ability is admonished by the addition of ferrostatin, is clear indication that the molecule is an GPX4 inhibitor.

786-O = assay: Cell proliferation (Alamar Blue) assay, 786-O renal cell carcinoma, with/without ferrostatin; type: cell-based; details: Homo sapiens
Description: as §1, §2, §3

[1] = A549, Cell Line A549, read-out: IC50
[2] = Homo sapiens, KP-4, Cell Line KP4, read-out: IC50
[3] = SJSA-1, Cell Line SJSA-1, read-out: IC50
[4] = 786-0, Cell Line 786-O, read-out: IC50
[5] = SJSA-1, 24 h, Alamar Blue, 24 h, 2 μM ferrostatin, read-out: SJSA-1 (IC50, μM) 2 μM Ferrostatin
[6] = SJSA-1, 24 h, Alamar Blue, 24 h, without ferrostatin, read-out: SJSA-1 (IC50, μM) Without Ferrostatin
[7] = 786-0, 24 h, Alamar Blue, 24 h, 2 μM ferrostatin, read-out: 786-O (IC50, μM) 2 μM Ferrostatin
[8] = 786-0, 24 h, Alamar Blue, 24 h, without ferrostatin, read-out: 786-O (IC50, μM) Without Ferrostatin

| SMILES | IC50 (A549; [1]) | IC50 (KP4; [2]) | IC50 (SJSA-1; [3]) | IC50 (786-O; [4]) | further results |
| --- | --- | --- | --- | --- | --- |
| CC(C)[C@H]1Cc2c([nH]c3ccccc23)[C@H](c2ccc(N3CCOCC3)cc2)N1C(=O)CCl [Compound 119] | 12.8 µM | 0.102 µM |  |  |  |
| C[C@H]1Cc2c([nH]c3ccc(Cl)cc23)[C@H](c2ccc(N3CCOCC3)cc2)N1C(=O)CCl [Compound 120] | 0.807 µM |  |  |  | IC50 (KP4; Homo sapiens, KP-4, 96 h, pancreatic cancer cell line KP4, 96 hours, CellTiter Glo, read-out: IC50 μM KP4): 0.1 to 0.5 µM |
| COC(=O)[C@H]1Cc2c([nH]c3ccccc23)[C@@H](c2ccc(C(=O)NC34CC5CC(CC(C5)C3)C4)cc2)N1C(=O)CCl [Compound 130, Methyl-(1R,3R)-1-(4-(((3S,5S,7S)-adamantan-1-yl)carbamoyl)phenyl)-2-(2-chloroacetyl)-2,3,4,9-tetrahydro-1H-pyrido[3,4-b]indole-3-carboxylate] |  |  | 2.7 µM | 1.8 µM |  |
| C=C(C(=O)N1[C@@H](c2ccc(N3CCOCC3)cc2)c2[nH]c3ccccc3c2C[C@@H]1C)C(F)(F)F [Compound 175] |  |  | > 10 µM | > 10 µM |  |
| C#CCOc1ccc2[nH]c3c(c2c1)C[C@H](C(=O)OC)N(C(=O)CCl)[C@H]3c1ccc(C(=O)NC23CC4CC(CC(C4)C2)C3)cc1 [Compound 211] |  |  |  | 0.009 µM | IC50 (SJSA-1; [5]): 5.92 µM; IC50 (SJSA-1; [6]): 0.011 µM; IC50 (786-O; [7]): 3.94 µM; IC50 (786-O; [8]): 0.009 µM |
| C/C=C/C(=O)N1[C@@H](c2ccc(N3CCOCC3)cc2)c2[nH]c3ccccc3c2C[C@@H]1C [Compound 228] | > 30 µM | > 30 µM |  |  |  |
| C[C@H]1Cc2c([nH]c3ccccc23)[C@H](c2ccc(N3CCOCC3)cc2)N1C(=O)/C=C/C(F)(F)F [Compound 230] | 22 µM | > 30 µM |  |  |  |
| C[C@H]1Cc2c([nH]c3ccc(C(C)(C)O)cc23)[C@H](c2ccc(N3CCOCC3)cc2)N1C(=O)CCl [Compound 235] | 7.18 µM | 0.041 µM |  |  |  |
| [2H]C([2H])(Cl)C(=O)N1[C@@H](c2ccc(C(=O)NC34CC5CC(CC(C5)C3)C4)cc2)c2[nH]c3ccccc3c2C[C@@H]1C(=O)OC [Compound 250] | 2.4 µM |  |  |  |  |
| CC(C)(C)OC(=O)c1ccc([C@H]2c3[nH]c4ccccc4c3C[C@H](CO)N2C(=O)CCl)cc1 [Compound 257] | 8.14 µM | 10.4 µM |  |  |  |
| CN(C)C(=O)[C@H]1Cc2c([nH]c3ccccc23)[C@H](c2ccc(N)cc2)N1C(=O)CCl [Compound 259] | 7.97 µM | 0.179 µM |  |  | IC50 (KP4; Cell Line KP4, read-out: IC50): 0.212 µM |
| COC(=O)[C@H]1Cc2c([nH]c3ccccc23)[C@H](c2ccc(C(=O)OC(C)(C)C)cc2)N1C(=O)C(C)(C)CCl [Compound 264] | 4.45 µM | 8.69 µM |  |  |  |
| COC(=O)c1ccc([C@H]2c3[nH]c4ccc(OC)cc4c3C[C@H](C)N2C(=O)CCl)cc1 [Compound 278] |  |  | 0.14 µM | 0.22 µM |  |
| COc1ccc2c(c1)C[C@H](C)N(C(=O)CCl)[C@H]2c1ccc(C(=O)NC2CC2)cc1 [Compound 280] |  |  | 0.38 µM | 0.21 µM |  |
| COC(=O)c1ccc([C@H]2c3[nH]c4ccc(Cl)cc4c3C[C@H](C(=O)OC)N2C(=O)CCl)cc1 [Example 93] |  |  |  |  | IC50 (A549; A549, A549, read-out: IC50 for A549): 0.25 µM |

More lines, main results first:

| IC50 (A549; [1]) | IC50 (KP4; [2]) | IC50 (SJSA-1; [3]) | IC50 (786-O; [4]) | SMILES | further results |
| --- | --- | --- | --- | --- | --- |
|  |  | > 10 µM | > 10 µM | C[C@H]1Cc2c([nH]c3ccccc23)[C@@H](c2ccc(S(=O)(=O)NC3CCNCC3)cc2)N1C(=O)CCl [Compound 133, 4-((1R,3S)-2-(2-chloroacetyl)-3-methyl-2,3,4,9-tetrahydro-1H-pyrido[3,4-b]indol-1-yl)-N-(piperidin-4-yl)benzenesulfonamide2,2,2-trifluoroacetic acid] |  |
|  |  | 0.015 µM | 0.009 µM | C#CC(=O)N1[C@@H](c2ccc(S(=O)(=O)NC3CC3)cc2F)c2[nH]c3ccc(F)cc3c2C[C@@H]1C [Compound 153, N-cyclopropyl-3-fluoro-4-((1S,3S)-6-fluoro-3-methyl-2-propioloyl-2,3,4,9-tetrahydro-1H-pyrido[3,4-b]indol-1-yl)benzenesulfonamide] |  |
|  |  | 0.085 µM | 0.06 µM | COC[C@H]1Cc2c([nH]c3ccccc23)C(c2ccc(C(=O)NC3CC3)cc2F)N1C(=O)CCl (stereo partly drawn) [Compound 162, 4-((3R)-2-(2-chloroacetyl)-3-(methoxymethyl)-2,3,4,9-tetrahydro-1H-pyrido[3,4-b]indol-1-yl)-N-cyclopropyl-3-fluorobenzamide] |  |
|  |  |  | 0.162 µM | C[C@H]1Cc2c([nH]c3ccccc23)[C@H](c2ccncc2)N1C(=O)CCl [Compound 171] | IC50 (SJSA-1; [5]): > 10 µM; IC50 (SJSA-1; [6]): 0.254 µM; IC50 (786-O; [7]): > 10 µM; IC50 (786-O; [8]): 0.162 µM |
|  |  |  | 0.016 µM | C#CC(=O)N1[C@@H](c2ccc(S(=O)(=O)NC3CC3)cc2F)c2[nH]c3ccccc3c2C[C@@H]1C [Compound 174] | IC50 (SJSA-1; [5]): 2.32 µM; IC50 (SJSA-1; [6]): 0.091 µM; IC50 (786-O; [7]): 5.09 µM; IC50 (786-O; [8]): 0.016 µM |
|  |  |  | 0.022 µM | CCS(=O)(=O)N1CCN(c2ccc([C@H]3c4[nH]c5ccccc5c4C[C@H](C)N3C(=O)CCl)cc2)CC1 [Compound 209] | IC50 (SJSA-1; [5]): 8.29 µM; IC50 (SJSA-1; [6]): 0.019 µM; IC50 (786-O; [7]): > 10 µM; IC50 (786-O; [8]): 0.022 µM |
|  |  | 0.011 µM |  | CC1CN(c2ccc([C@H]3c4[nH]c5ccccc5c4C[C@H](C)N3C(=O)CCl)cc2)CC(C)O1 (some centres unmarked) [Compound 212] | IC50 (SJSA-1; [5]): 5.03 µM; IC50 (SJSA-1; [6]): 0.011 µM; IC50 (786-O; [7]): 4.96 µM; IC50 (786-O; [8]): 0.008 µM |
|  |  | 1.4 µM | 8.1 µM | C[C@H]1Cc2c([nH]c3ccccc23)[C@H](c2ccc(S(=O)(=O)NC3CCNCC3)cc2)N1C(=O)CCl [Compound 218, 4-((1S,3S)-2-(2-chloroacetyl)-3-methyl-2,3,4,9-tetrahydro-1H-pyrido[3,4-b]indol-1-yl)-N-(piperidin-4-yl)benzenesulfonamide] |  |
| > 30 µM | > 30 µM |  |  | C=C(C)C(=O)N1[C@@H](c2ccc(N3CCOCC3)cc2)c2[nH]c3ccccc3c2C[C@@H]1C [Compound 229] |  |
| 17.5 µM | 1.2 µM |  |  | C[C@H]1Cc2c([nH]c3ccccc23)[C@H](c2ccc(C3(O)COC3)cc2)N1C(=O)CCl [Compound 236] | IC50 (KP4; Cell Line KP4, read-out: IC50): > 1 µM |
| 1.86 µM | 0.458 µM |  |  | C[C@H]1Cc2c([nH]c3ccccc23)[C@H](c2ccc(C3(O)CCOCC3)cc2)N1C(=O)CCl [Compound 237] |  |
| > 10 µM | > 10 µM |  |  | C=CC(=O)N1[C@@H](c2ccc(N3CCOCC3)cc2)c2[nH]c3ccccc3c2C[C@@H]1C [Compound 238] |  |
|  |  | 1 µM | 0.58 µM | C#CC(=O)N1[C@@H](c2ccc(C(=O)NC3CC3)cc2)c2ccc(OC)cc2C[C@@H]1C [Compound 279] |  |
|  |  | 0.261 µM | 0.206 µM | COc1ccc2[nH]c3c(c2c1)C[C@H](C)N(C(=O)CCl)[C@H]3c1ccc(F)cc1 [Compound 281] |  |
|  |  | 0.436 µM | 0.223 µM | C#CC(=O)N1[C@@H](c2ccc(F)cc2)c2[nH]c3ccc(OC)cc3c2C[C@@H]1C [Compound 282] |  |
|  |  | 0.03 µM | 0.067 µM | C[C@H]1Cc2c([nH]c3ccccc23)[C@H](c2ccc(S(=O)(=O)NC3CCN(C(=O)OC(C)(C)C)CC3)cc2)N1C(=O)CCl [Compound 293, tert-butyl-4-((4-((1S,3S)-2-(2-chloroacetyl)-3-methyl-2,3,4,9-tetrahydro-1H-pyrido[3,4-b]indol-1-yl)phenyl)sulfonamido)piperidine-1-carboxylate] |  |
